Where “and” joins values, the source holds several entries; their conditions need not be identical. Equal entries are not always repeated. Toxic doses and inconclusive results are not listed.
System: P388 leukemia ip, CD2F1 mice, survival T/C
Test: NCI In Vivo Anticancer Drug Screen. Data for tumor model P388 Leukemia (intraperitoneal) in CD2F1 (CDF1) mice
Settings: endpoint: median survival time, higher = longer survival
Summary of the method: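 Mice carrying the transplanted tumor received test compound or vehicle. Survival was recorded in each group, and the value is the treated-group measurement divided by that of the vehicle-treated control group.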

[1] = dose: 50.0 mg/kg/injection, schedule: Q01DX005 (ip), vehicle: Klucel (hydroxypropylcellulose) (HPC)
[2] = dose: 50.0 mg/kg/injection, schedule: Q01DX005 (ip), vehicle: saline with Tween-80
[3] = dose: 100.0 mg/kg/injection, schedule: Q01DX005 (ip), vehicle: saline with Tween-80
[4] = dose: 100.0 mg/kg/injection, schedule: Q01DX005 (ip), vehicle: Klucel (hydroxypropylcellulose) (HPC)
[5] = dose: 200.0 mg/kg/injection, schedule: Q01DX005 (ip), vehicle: Klucel (hydroxypropylcellulose) (HPC)

In the case of `C=C1C(O)C2OC3(CCC(/C=C/C(C)C4CC5(C)SC5C5(OC(CC(C)(O)C(=O)O)CCC5O)O4)O3)CCC2OC1C(O)CC(C)C1OC2(CCCCO2)CCC1C` (configuration not stated), the T/C (dose: 1.87 micrograms/kg/injection, schedule: Q01DX005 (ip), vehicle: saline + alcohol) is reported as 102 % of control and 103 % of control, the T/C (dose: 3.75 micrograms/kg/injection, schedule: Q01DX005 (ip), vehicle: saline + alcohol) is reported as 103 % of control and 120 % of control and 93 % of control and the T/C (dose: 7.5 micrograms/kg/injection, schedule: Q01DX005 (ip), vehicle: saline + alcohol) is reported as 100 % of control and 103 % of control. For the same molecule, the T/C (dose: 15.0 micrograms/kg/injection, schedule: Q01DX005 (ip), vehicle: saline + alcohol) was 111 % of control.
In the case of `COC(=O)N/N=C\c1ccc(O)c(OC)c1`, the T/C (dose: 50.0 mg/kg/injection, schedule: Q04DX003 (ip), vehicle: saline) is reported as 97 % of control, the T/C (dose: 100.0 mg/kg/injection, schedule: Q04DX003 (ip), vehicle: saline) is reported as 101 % of control and the T/C (dose: 200.0 mg/kg/injection, schedule: Q04DX003 (ip), vehicle: saline) is reported as 97 % of control. For the same molecule, the T/C (dose: 400.0 mg/kg/injection, schedule: Q04DX003 (ip), vehicle: saline) was 101 % of control.
`CCN=C(NCC)c1ccc(NC(=O)Nc2ccc(NC(=O)Nc3ccc(C(=NCC)NCC)cc3)cc2)cc1` was tested, and the T/C (dose: 3.12 mg/kg/injection, schedule: Q01DX005 (ip), vehicle: Klucel (hydroxypropylcellulose) (HPC)) was 107 % of control, the T/C (dose: 6.25 mg/kg/injection, schedule: Q01DX005 (ip), vehicle: Klucel (hydroxypropylcellulose) (HPC)) was 111 % of control and the T/C (dose: 12.5 mg/kg/injection, schedule: Q01DX005 (ip), vehicle: Klucel (hydroxypropylcellulose) (HPC)) was 116 % of control. For the same molecule, the T/C (dose: 25.0 mg/kg/injection, schedule: Q01DX005 (ip), vehicle: Klucel (hydroxypropylcellulose) (HPC)) was 156 % of control and the T/C [1] was 122 % of control.
For `O=C1C2CCC(C2)C1C(O)(C(F)(F)F)C(F)(F)F` (configuration not stated), the T/C (dose: 25.0 mg/kg/injection, schedule: Q01DX009 (ip), vehicle: saline with Tween-80) was 109 % of control, the T/C (dose: 25.0 mg/kg/injection, schedule: Q04DX003 (ip), vehicle: saline with Tween-80) was 109 % of control and the T/C (dose: 50.0 mg/kg/injection, schedule: Q01DX009 (ip), vehicle: saline with Tween-80) was 100 % of control. The T/C (dose: 50.0 mg/kg/injection, schedule: Q04DX003 (ip), vehicle: saline with Tween-80) was 100 % of control, the T/C (dose: 100.0 mg/kg/injection, schedule: Q01DX009 (ip), vehicle: saline with Tween-80) was 104 % of control and the T/C (dose: 100.0 mg/kg/injection, schedule: Q04DX003 (ip), vehicle: saline with Tween-80) was 90 % of control.
With `Cc1ccc(NCc2ccccn2)nc1` the T/C [2] was 99 % of control and the T/C [3] was 89 % of control.
With `O=[N+]([O-])c1ccc([O-])c([I+]c2ccccc2)c1` the T/C (dose: 12.5 mg/kg/injection, schedule: Q01DX009 (ip), vehicle: Klucel (hydroxypropylcellulose) (HPC)) was 94 % of control, the T/C (dose: 25.0 mg/kg/injection, schedule: Q01DX009 (ip), vehicle: Klucel (hydroxypropylcellulose) (HPC)) was 96 % of control and the T/C (dose: 50.0 mg/kg/injection, schedule: Q01DX009 (ip), vehicle: Klucel (hydroxypropylcellulose) (HPC)) was 89 % of control and 94 % of control.
For `C[Si](C)(C)Cn1ccc2ccccc21`, the T/C [2] was 100 % of control, the T/C [3] was 105 % of control and the T/C (dose: 200.0 mg/kg/injection, schedule: Q01DX005 (ip), vehicle: saline with Tween-80) was 108 % of control.
`CN(C)CCC=C1c2ccccc2C=Cc2ccccc21` was tested, and the T/C (dose: 12.5 mg/kg/injection, schedule: Q01DX005 (ip), vehicle: saline) was 103 % of control, the T/C (dose: 25.0 mg/kg/injection, schedule: Q01DX005 (ip), vehicle: saline) was 95 % of control and the T/C (dose: 50.0 mg/kg/injection, schedule: Q01DX005 (ip), vehicle: saline) was 112 % of control.
`COc1ccc2cccc3c4cccc5ccc(OC)c(c1c23)c54` was tested, and the T/C [1] was 97 % of control, the T/C [4] was 99 % of control and the T/C [5] was 99 % of control.
With `CC(=O)OC1CC(C(C)C2CC(C)=C(C)C(=O)O2)C2(C)CCC3C(CC4OC45C(O)C=CC(=O)C35C)C12O` (configuration not stated) the T/C (dose: 7.5 mg/kg/injection, schedule: Q01DX005 (ip), vehicle: Klucel (hydroxypropylcellulose) (HPC)) was 108 % of control, the T/C (dose: 15.0 mg/kg/injection, schedule: Q01DX005 (ip), vehicle: Klucel (hydroxypropylcellulose) (HPC)) was 105 % of control and the T/C (dose: 30.0 mg/kg/injection, schedule: Q01DX005 (ip), vehicle: Klucel (hydroxypropylcellulose) (HPC)) was 101 % of control.
In the case of `COc1ccc(C(=O)C(C)Oc2ccccc2OC)cc1OC` (configuration not stated), the T/C (dose: 10.0 mg/kg/injection, schedule: Q01DX005 (ip), vehicle: Klucel (hydroxypropylcellulose) (HPC)) is reported as 99 % of control, the T/C (dose: 20.0 mg/kg/injection, schedule: Q01DX005 (ip), vehicle: Klucel (hydroxypropylcellulose) (HPC)) is reported as 100 % of control and the T/C (dose: 40.0 mg/kg/injection, schedule: Q01DX005 (ip), vehicle: Klucel (hydroxypropylcellulose) (HPC)) is reported as 101 % of control.
`O=C1c2ccccc2-c2nsc3c(C(Br)Br)ccc1c23` was tested, and the T/C [1] was 99 % of control, the T/C [4] was 87 % of control and the T/C [5] was 91 % of control.

From PubChem BioAssay AID330 (DTP/NCI, 2004)
